# Measured values as given in patent US6660891B2, “Methods for the production of D-chiro-inositol and the use of D-chiro inositol obtained therefrom” (Insmed Incorporated, priority 2000, dated 2003).
# Tests used:
# [1] = Stability in concentrated aqueous acid (HCl); assay type: physicochemical; details: about 5 N to 12 N HCl, about 65° C. to about 110° C.; conditions that destroy other sugars and demethylate D-Pinitol
# Source text: Therefore this single reaction provides D-chiro-inositol that is substantially free of other contaminating carbohydrates, thus eliminating the need for subsequent purification techniques.
# One aspect of the invention involves the conversion of […] a concentrated acid. […] Thus a crude D-chiro-inositol composition comprising one or more components where at least 10% (w/w) of the mass is a D-chiro-inositol moiety is subject to concentrated acid in a solution of about 5 N to 12 N HCl at a temperature in the range of about 65° C. to about 110° C. for a period of time.
# insulin sensitivity = details: oral supplementation, insulin resistant individuals; cited from earlier work
# [2] = system: glucose tolerance and insulin secretion; details: subjects with impaired glucose tolerance; DCI 1200 mg/day for 2 weeks; restored to normal levels; cited from earlier work
# [3] = system: ovulation in women afflicted with polycystic ovary syndrome; details: 44 women with PCOS; DCI 1200 mg/day for 6-8 weeks; placebo 27%; cited from earlier work
smiles,measurement,setting,value
"OC1C(O)C(O)C(O)C(O)C1O [DCI, D-chiro-inositol]",stability under acidic conditions,[1],stable
same,insulin sensitivity,insulin sensitivity,improves insulin sensitivity
same,glucose tolerance,[2],restored
same,insulin secretion,[2],restored
same,"ovulation, proportion of patients",[3],86%
